Data reported in patent US9085555B2, “Complement pathway modulators and uses thereof” (priority 2011, dated 2015).
pIC50: −log10 of the molar value.

Each compound was assayed against Factor D (Homo sapiens (Human), UniProt P00746) (assay: biochemical). Conditions: read-out: IC50.
Format: biochemical

Sequence of Factor D (P00746 26-253): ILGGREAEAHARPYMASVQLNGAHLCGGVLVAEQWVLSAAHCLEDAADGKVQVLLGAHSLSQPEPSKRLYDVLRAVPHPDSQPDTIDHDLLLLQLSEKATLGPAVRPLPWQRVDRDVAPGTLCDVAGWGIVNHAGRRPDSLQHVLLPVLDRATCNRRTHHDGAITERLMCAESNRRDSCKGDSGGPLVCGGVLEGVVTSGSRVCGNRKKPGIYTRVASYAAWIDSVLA

Compound	pIC50
NC(=O)n1cc(NC(=O)N2C[C@H](F)C[C@H]2C(=O)Nc2cccc(Br)n2)c2ccccc21 [Example 764, (2S,4R)-4-Fluoro-pyrrolidine-1,2-dicarboxylic acid 2-[(6-bromo-pyridin-2-yl)-amide]1-[(1-carbamoyl-1H-indol-3-yl)-amide]]	8.40
CCOC(=O)[C@H](CC1CCCCC1)NC(=O)[C@@H]1C[C@H]2C[C@H]2N1C(=O)Cn1nc(C(C)=O)c2cccnc21 [Example 765]	6.68
COC(=O)[C@H](CC(C)C)NC(=O)[C@@H]1C[C@H]2C[C@H]2N1C(=O)Cn1nc(C(C)=O)c2cccnc21 [Example 766, (S)-2-({(1R,3S,5R)-2-[2-(3-Acetyl-pyrazolo[3,4-b]pyridin-1-yl)-acetyl]-2-aza-bicyclo[3.1.0]hexane-3-carbonyl}-amino)-4-methyl-pentanoic acid methyl ester]	6.67
COC(=O)C(CCC(F)(F)F)NC(=O)[C@@H]1C[C@H]2C[C@H]2N1C(=O)Cn1nc(C(C)=O)c2cccnc21 (stereo partly drawn) [Example 767, 2-({(1R,3S,5R)-2-[2-(3-Acetyl-pyrazolo[3,4-b]pyridin-1-yl)-acetyl]-2-aza-bicyclo[3.1.0]hexane-3-carbonyl}-amino)-5,5,5-trifluoro-pentanoic acid methyl ester]	6.46
CC(=O)c1nn(CC(=O)N2[C@@H]3C[C@@H]3C[C@H]2C(=O)Nc2nccc(C(F)(F)F)n2)c2ncccc12 [Example 769, (1R,3S,5R)-2-[2-(3-Acetyl-pyrazolo[3,4-b]pyridin-1-yl)-acetyl]-2-aza-bicyclo[3.1.0]hexane-3-carboxylic acid (4-trifluoromethyl-pyrimidin-2-yl)-amide]	6.42
COCCOc1ccc2c(c1)c(C(C)=O)nn2CC(=O)N1[C@@H]2C[C@@H]2C[C@H]1C(=O)Nc1cccc(OC(F)(F)F)c1F [Example 770, (1R,3S,5R)-2-{2-[3-Acetyl-5-(2-methoxy-ethoxy)-indazol-1-yl]-acetyl}-2-aza-bicyclo[3.1.0]hexane-3-carboxylic acid (2-fluoro-3-trifluoromethoxy-phenyl)-amide]	8.05
CC(=O)c1nn(CC(=O)N2[C@@H]3C[C@@H]3C[C@H]2C(=O)Nc2cccc(OC(F)(F)F)c2F)c2ccc(OC(C)C#N)cc12 (stereo partly drawn) [Example 771, (1R,3S,5R)-2-{2-[3-Acetyl-5-(cyano-methyl-methoxy)-indazol-1-yl]-acetyl}-2-aza-bicyclo[3.1.0]hexane-3-carboxylic acid (2-fluoro-3-trifluoromethoxy-phenyl)-amide]	8.10
CC(=O)c1nn(CC(=O)N2[C@@H]3C[C@@H]3C[C@H]2C(=O)Nc2cccc(OC(F)(F)F)c2F)c2ccc(OCC3CCCO3)cc12 (stereo partly drawn) [Example 772, (1R,3S,5R)-2-{2-[3-Acetyl-5-(tetrahydro-furan-2-ylmethoxy)-indazol-1-yl]-acetyl}-2-aza-bicyclo[3.1.0]hexane-3-carboxylic acid (2-fluoro-3-trifluoromethoxy-phenyl)-amide]	8.15
CC(=O)c1cn(CC(=O)N2C[C@H](F)[C@@H](F)[C@H]2C(=O)NCc2cccc(Cl)c2F)c2ccccc12 [Example 773, (2R,3S,4S)-1-[2-(3-Acetyl-indol-1-yl)-acetyl]-3,4-difluoro-pyrrolidine-2-carboxylic acid 3-chloro-2-fluoro-benzylamide]	7.55
(1R,3S,5R)-2-[2-(3-Acetyl-6- amino-pyrrolo[2,3-b]pyridin-1- yl)-acetyl]-2-aza-bicyclo [3.1.0]hexane-3-carboxylic acid 3-chloro-2-fluoro- benzylamide [Example 676]	7.96
(1R,3S,5S)-5-Hydroxymethyl- 2-aza-bicyclo[3.1.0]hexane- 2,3-dicarboxylic acid 3-(3- chloro-2-fluoro-benzylamide) 2-[(1-methylcarbamoyl-1H- indol-3-yl)-amide] [Example 265]	7.08
(2S,4R)-4-Fluoro-pyrrolidine-1,2-dicarboxylic acid 1-[(3-carbamoyl-indolizin-1-yl)-amide]2-[(3-trifluoromethoxy-phenyl)-amide] [Example 122]	6.82
(2S,4S)-4-Amino-pyrrolidine-1,2-dicarboxylic acid 1-[(1-carbamoyl-1H-indol-3-yl)-amide] 2-[(2-phenoxy-ethyl)-amide] [Example 91]	5.53
(S)-1-[2-(3-Formyl-indol-1-yl)- acetyl]-pyrrolidine-2- carboxylic acid (3-trifluoro- methoxy-phenyl)-amide [Example 559]	4.80
